Assay results reported in PubChem BioAssay (NCI).
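Step 1: Grow cells in 96-well plates. Step 2: Expose to compound for 48 hours at 5 concentrations. Step 3: Interpolate endpoints linearly; if unreached, use highest concentration. At the GI50, growth is halved. At the TGI there is no net growth.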

Tests used:
Assay in all cases: NCI-60 cell line screen, 48 h
[1] = test system: M14 melanoma
[2] = test system: NCI-H522 lung
[3] = test system: SK-MEL-5 melanoma
[4] = test system: SF-539 CNS
[5] = test system: OVCAR-8 ovarian
[6] = test system: BT-549 breast
[7] = test system: U251 CNS
[8] = test system: MDA-MB-435
[9] = test system: TK-10 renal
[10] = test system: SK-MEL-28 melanoma
[11] = test system: IGROV1 ovarian
[12] = test system: HOP-92 NSCLC
[13] = test system: T-47D breast
[14] = test system: SF-268 CNS
[15] = test system: OVCAR-5 ovarian
[16] = test system: CAKI-1 renal
[17] = test system: SW-620 colon
[18] = test system: KM12 colon
[19] = test system: SK-OV-3 ovarian
[20] = test system: SR leukemia
[21] = test system: SF-295 CNS
[22] = test system: MDA-MB-231 breast
[23] = test system: PC-3 prostate
[24] = test system: EKVX NSCLC
[25] = test system: RPMI-8226 leukemia
[26] = test system: HT29 colon
[27] = test system: HCT-15 colon
[28] = test system: A498 renal
[29] = test system: UACC-257 melanoma

## NC(=O)c1sc(-n2cnc3ccc(C(F)(F)F)cc32)cc1OCc1ccccc1Br
[1]
  GI50: 1890 nM
  TGI: > 25000 nM
[2]
  GI50: 793 nM
  TGI: 5710 nM
[3]
  GI50: 916 nM
  TGI: 6780 nM
[4]
  GI50: 1370 nM
  TGI: > 17000 nM
[5]
  GI50: 1780 nM
  TGI: > 25000 nM
[6]
  GI50: 3210 nM
  TGI: > 25000 nM
[7]
  GI50: 1610 nM
  TGI: > 25000 nM
[8]
  GI50: 636 nM
  TGI: 1780 nM
[9]
  GI50: 7810 nM
  TGI: > 25000 nM
[10]
  GI50: 4820 nM
  TGI: > 25000 nM
[11]
  GI50: 2220 nM
  TGI: > 25000 nM
[12]
  GI50: 2500 nM
  TGI: 16800 nM
[13]
  GI50: 2590 nM
  TGI: > 20300 nM
[14]
  GI50: 1320 nM
  TGI: > 25000 nM
[15]
  GI50: 1460 nM
  TGI: > 19200 nM
[16]
  GI50: 15300 nM
  TGI: > 25000 nM
[17]
  GI50: 749 nM
  TGI: > 25000 nM
[18]
  GI50: 723 nM
  TGI: 2870 nM
[19]
  GI50: 1360 nM
  TGI: 9410 nM
[20]
  GI50: 907 nM
  TGI: > 25000 nM
[21]
  GI50: 1720 nM
  TGI: > 23400 nM
[22]
  GI50: 1620 nM
  TGI: 19300 nM
[23]
  GI50: 2310 nM
  TGI: > 25000 nM
[24]
  GI50: > 21300 nM
  TGI: > 25000 nM
[25]
  GI50: 2700 nM
  TGI: > 21200 nM
[26]
  GI50: 858 nM
  TGI: > 25000 nM
[27]
  GI50: 1420 nM
  TGI: > 25000 nM
[28]
  GI50: 2240 nM
  TGI: 16200 nM
[29]
  GI50: 2740 nM
  TGI: > 25000 nM
